Earlier results in patent publication US20250262160A1, “COMPOSITIONS FOR MODIFIED RELEASE OF ACTIVE INGREDIENTS” (PROLEVI BIO AB, priority 2022, published 2025).
Like-named read-outs stand apart in the source and are kept apart here.

Tests used:
[1] = assumed parameter for IVIVC, as reported in literature

SMILES	Volume of distribution (Vd) (body weight 75 kg euthyroid individual, parameter used for IVIVC) [L/kg]	Half-life (t½) after baseline (120 ng/dL) correction (estimated, parameter used for IVIVC) [h]	elimination half-life (in adults) [h]	biological half-life (in vivo) [days]	estimated baseline corrected half-life (in vivo) [h]	bioavailability (parameter used for IVIVC) [%]	Tmax (thyroidectomized patients administered exogenous hormone) [h]	T1/2 half-life (thyroidectomized patients administered exogenous hormone, after last LT3 dose withdrawal) [h]	Half-life (T1/2) [1] [h]	oral bioavailability (BA) [1] [%]	Volume of distribution (Vd) ([1]; body weight 75 Kg) [L]
N[C@@H](Cc1cc(I)c(Oc2ccc(O)c(I)c2)c(I)c1)C(=O)O [Formulation T3, triiodothyronine]	0.2	4	23 to 25	2.5	4	95	2.9	3.62			
COc1ccc2[nH]cc(CCNC(C)=O)c2c1 [melatonin]									0.75	15	1602
